Experiments:
R0-3306 = compound: C1=CC2=C(C=CC(=C2)C=C3C(=O)NC(=NCC4=CC=CS4)S3)N=C1 [R0-3306]
Paclitaxel = compound: CC(=O)O[C@H]1C(=O)[C@@]2(C)[C@H]([C@H](OC(=O)c3ccccc3)[C@]3(O)C[C@H](OC(=O)[C@H](O)[C@@H](NC(=O)c4ccccc4)c4ccccc4)C(C)=C1C3(C)C)[C@]1(OC(C)=O)CO[C@@H]1C[C@@H]2O [Paclitaxel]
BSJ-03-123 [1] = compound: T1, CC(=O)c1c(C)c2cnc(Nc3ccc(N4CCN(CCOCCOCCOCCNC(=O)COc5cccc6c5C(=O)N(C5CCC(=O)NC5=O)C6=O)CC4)cn3)nc2n(C2CCCC2)c1=O [BSJ-03-123]
BVD523 = compound: CC(C)Nc1cc(-c2c[nH]c(C(=O)N[C@H](CO)c3cccc(Cl)c3)c2)c(Cl)cn1 [BVD523]
[2] = compound: CCC1=CN=CN=C1N2CCN(CC2)CC3=NC4=C(N3)C=C(C=C4)C(F)(F)F
Neratinib/HKI272 = compound: CCOc1cc2ncc(C#N)c(Nc3ccc(OCc4ccccn4)c(Cl)c3)c2cc1NC(=O)/C=C/CN(C)C [Neratinib/HKI272]
Flavopiridol [3] = compound: T2, CN1CC[C@H](c2c(O)cc(O)c3c(=O)cc(-c4ccccc4Cl)oc23)[C@H](O)C1 [Flavopiridol]
AZD5363 = compound: NC1(C(=O)N[C@@H](CCO)c2ccc(Cl)cc2)CCN(c2nc[nH]c3nccc2-3)CC1 [AZD5363]
YKL-5-124 = compound: C=CC(=O)Nc1ccc(C(=O)Nc2[nH]nc3c2CN(C(=O)N[C@H](CN(C)C)c2ccccc2)C3(C)C)cc1 [YKL-5-124]; test: GR value, 72 h; higher = faster growth (1 = untreated, <0 = killing);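 note: breast cancer and non-malignant breast epithelial lines, nine half-log doses, viable cells counted by Hoechst and LIVE/DEAD dye imaging versus time-zero plates and DMSO controls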
BSJ-03-123 [4] = compound: T1, BSJ-03-123; test: as above
[5] = compound: CCN1CCN(Cc2ccc(Nc3ncc(F)c(-c4cc(F)c5nc(C)n(C(C)C)c5c4)n3)nc2)CC1; test: as above
[6] = compound: CCc1cnn2c(NCc3ccc[n+]([O-])c3)cc(N3CCCC[C@H]3CCO)nc12; test: as above
LEE011/Ribociclib = compound: CN(C)C(=O)c1cc2cnc(Nc3ccc(N4CCNCC4)cn3)nc2n1C1CCCC1 [LEE011/Ribociclib]; test: as above
THZ531 = compound: CN(C)C/C=C/C(=O)Nc1ccc(C(=O)N2CCC[C@@H](Nc3ncc(Cl)c(-c4c[nH]c5ccccc45)n3)C2)cc1 [THZ531]; test: as above
THZ1 = compound: CN(C)C/C=C/C(=O)Nc1ccc(C(=O)Nc2cccc(Nc3ncc(Cl)c(-c4c[nH]c5ccccc45)n3)c2)cc1 [THZ1]; test: as above
Flavopiridol [7] = compound: T2, Flavopiridol; test: as above
[8] = compound: CO[C@@H](C)Cn1c(=O)n(C)c2cnc3ccc(-c4cncc(C(C)(C)O)c4)cc3c21
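Throughout, for GR50, 72 h: breast cancer and non-malignant breast epithelial cell lines, Deep Dye Drop or Dye Drop imaging, nine half-log doses, GR normalized to time-zero plates and DMSO-only controls.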

MDAMB436
GR50, 72 h (R0-3306): 4.65 µM
GR50, 72 h (Paclitaxel): 0.00371 µM
GR50, 72 h (BSJ-03-123 [1]): 7.25 µM
GR50, 72 h (BVD523): > 10 µM
GR50, 72 h [2]: 4.75 µM
GR50, 72 h (Neratinib/HKI272): 0.715 µM
GR50, 72 h (Flavopiridol [3]): 0.159 µM
GR50, 72 h (AZD5363): > 10 µM
GR value (YKL-5-124; 0.001 µM): 0.84 GR
GR value (YKL-5-124; 0.003162 µM): 0.563 GR
GR value (YKL-5-124; 0.01 µM): 0.533 GR
GR value (YKL-5-124; 0.03162 µM): 0.432 GR
GR value (YKL-5-124; 0.1 µM): 0.409 GR
GR value (YKL-5-124; 0.3162 µM): 0.3 GR
GR value (YKL-5-124; 1 µM): 0.405 GR
GR value (YKL-5-124; 3.162 µM): 0.291 GR
GR value (YKL-5-124; 10 µM): -0.0192 GR
GR value (BSJ-03-123 [4]; 0.001 µM): 1.1 GR
GR value (BSJ-03-123 [4]; 0.003162 µM): 1.07 GR
GR value (BSJ-03-123 [4]; 0.01 µM): 1.02 GR
GR value (BSJ-03-123 [4]; 0.03162 µM): 1.03 GR
GR value (BSJ-03-123 [4]; 0.1 µM): 1.11 GR
GR value (BSJ-03-123 [4]; 0.3162 µM): 0.971 GR
GR value (BSJ-03-123 [4]; 1 µM): 0.999 GR
GR value (BSJ-03-123 [4]; 3.162 µM): 0.966 GR
GR value (BSJ-03-123 [4]; 10 µM): -0.0484 GR
GR value ([5]; 0.001 µM): 1.04 GR
GR value ([5]; 0.003162 µM): 1 GR
GR value ([5]; 0.01 µM): 1.04 GR
GR value ([5]; 0.03162 µM): 1.03 GR
GR value ([5]; 0.1 µM): 1.02 GR
GR value ([5]; 0.3162 µM): 1 GR
GR value ([5]; 1 µM): 0.719 GR
GR value ([5]; 3.162 µM): 0.337 GR
GR value ([5]; 10 µM): -0.322 GR
GR value ([6]; 0.0001 µM): 0.969 GR
GR value ([6]; 0.0003162 µM): 1.01 GR
GR value ([6]; 0.001 µM): 1.07 GR
GR value ([6]; 0.003162 µM): 1.11 GR
GR value ([6]; 0.01 µM): 0.868 GR
GR value ([6]; 0.03162 µM): -0.101 GR
GR value ([6]; 0.1 µM): -0.124 GR
GR value ([6]; 0.3162 µM): -0.0986 GR
GR value ([6]; 1 µM): -0.15 GR
GR value (LEE011/Ribociclib; 0.001 µM): 0.982 GR
GR value (LEE011/Ribociclib; 0.003162 µM): 1.05 GR
GR value (LEE011/Ribociclib; 0.01 µM): 1.06 GR
GR value (LEE011/Ribociclib; 0.03162 µM): 1.08 GR
GR value (LEE011/Ribociclib; 0.1 µM): 0.913 GR
GR value (LEE011/Ribociclib; 0.3162 µM): 1.03 GR
GR value (LEE011/Ribociclib; 1 µM): 0.95 GR
GR value (LEE011/Ribociclib; 3.162 µM): 0.982 GR
GR value (LEE011/Ribociclib; 10 µM): 0.951 GR
GR value (THZ531; 0.0001 µM): 1.1 GR
GR value (THZ531; 0.0003162 µM): 1.02 GR
GR value (THZ531; 0.001 µM): 0.944 GR
GR value (THZ531; 0.003162 µM): 1.07 GR
GR value (THZ531; 0.01 µM): 1.12 GR
GR value (THZ531; 0.03162 µM): 1.01 GR
GR value (THZ531; 0.1 µM): 0.676 GR
GR value (THZ531; 0.3162 µM): 0.328 GR
GR value (THZ531; 1 µM): 0.0201 GR
GR value (THZ1; 0.0001 µM): 0.928 GR
GR value (THZ1; 0.0003162 µM): 1.07 GR
GR value (THZ1; 0.001 µM): 1.03 GR
GR value (THZ1; 0.003162 µM): 1.02 GR
GR value (THZ1; 0.01 µM): 1.1 GR
GR value (THZ1; 0.03162 µM): 1.02 GR
GR value (THZ1; 0.1 µM): 0.478 GR
GR value (THZ1; 0.3162 µM): 0.229 GR
GR value (THZ1; 1 µM): -0.138 GR
GR value (Flavopiridol [7]; 0.0001 µM): 0.988 GR
GR value (Flavopiridol [7]; 0.0003162 µM): 0.97 GR
GR value (Flavopiridol [7]; 0.001 µM): 0.97 GR
GR value (Flavopiridol [7]; 0.003162 µM): 0.889 GR
GR value (Flavopiridol [7]; 0.01 µM): 1.01 GR
GR value (Flavopiridol [7]; 0.03162 µM): 0.905 GR
GR value (Flavopiridol [7]; 0.1 µM): 0.701 GR
GR value (Flavopiridol [7]; 0.3162 µM): 0.125 GR
GR value (Flavopiridol [7]; 1 µM): -0.0603 GR

HCC1187
GR50, 72 h (Paclitaxel): 0.000215 µM
GR50, 72 h (BSJ-03-123 [1]): 6.39 µM
GR50, 72 h (BVD523): > 10 µM
GR50, 72 h [2]: > 10 µM
GR50, 72 h (Neratinib/HKI272): 2.5 µM
GR50, 72 h (Flavopiridol [3]): 0.237 µM
GR50, 72 h [8]: 1.12 µM
GR value (YKL-5-124; 0.001 µM): 0.478 GR
GR value (YKL-5-124; 0.003162 µM): 0.459 GR
GR value (YKL-5-124; 0.01 µM): 0.209 GR
GR value (YKL-5-124; 0.03162 µM): 0.309 GR
GR value (YKL-5-124; 0.1 µM): 0.195 GR
GR value (YKL-5-124; 0.3162 µM): 0.222 GR
GR value (YKL-5-124; 1 µM): 0.0281 GR
GR value (YKL-5-124; 3.162 µM): -0.0235 GR
GR value (YKL-5-124; 10 µM): -0.529 GR
GR value (BSJ-03-123 [4]; 0.001 µM): 0.987 GR
GR value (BSJ-03-123 [4]; 0.003162 µM): 0.865 GR
GR value (BSJ-03-123 [4]; 0.01 µM): 0.969 GR
GR value (BSJ-03-123 [4]; 0.03162 µM): 0.935 GR
GR value (BSJ-03-123 [4]; 0.1 µM): 0.956 GR
GR value (BSJ-03-123 [4]; 0.3162 µM): 0.882 GR
GR value (BSJ-03-123 [4]; 1 µM): 0.743 GR
GR value (BSJ-03-123 [4]; 3.162 µM): 0.621 GR
GR value (BSJ-03-123 [4]; 10 µM): -0.43 GR
GR value ([5]; 0.001 µM): 0.974 GR
GR value ([5]; 0.003162 µM): 0.907 GR
GR value ([5]; 0.01 µM): 0.898 GR
GR value ([5]; 0.03162 µM): 0.971 GR
GR value ([5]; 0.1 µM): 1.01 GR
GR value ([5]; 0.3162 µM): 1 GR
GR value ([5]; 1 µM): 0.849 GR
GR value ([5]; 3.162 µM): 0.69 GR
GR value ([5]; 10 µM): 0.297 GR
GR value ([6]; 0.0001 µM): 0.988 GR
GR value ([6]; 0.0003162 µM): 1 GR
GR value ([6]; 0.001 µM): 1.08 GR
GR value ([6]; 0.003162 µM): 0.985 GR
GR value ([6]; 0.01 µM): 0.471 GR
GR value ([6]; 0.03162 µM): -0.689 GR
GR value ([6]; 0.1 µM): -0.797 GR
GR value ([6]; 0.3162 µM): -0.791 GR
GR value ([6]; 1 µM): -0.761 GR
GR value (LEE011/Ribociclib; 0.001 µM): 1.01 GR
GR value (LEE011/Ribociclib; 0.003162 µM): 0.914 GR
GR value (LEE011/Ribociclib; 0.01 µM): 0.863 GR
GR value (LEE011/Ribociclib; 0.03162 µM): 1.02 GR
GR value (LEE011/Ribociclib; 0.1 µM): 0.922 GR
GR value (LEE011/Ribociclib; 0.3162 µM): 0.984 GR
GR value (LEE011/Ribociclib; 1 µM): 0.933 GR
GR value (LEE011/Ribociclib; 3.162 µM): 0.963 GR
GR value (LEE011/Ribociclib; 10 µM): 0.933 GR
GR value (THZ531; 0.0001 µM): 0.932 GR
GR value (THZ531; 0.0003162 µM): 1.02 GR
GR value (THZ531; 0.001 µM): 0.99 GR
GR value (THZ531; 0.003162 µM): 1.04 GR
GR value (THZ531; 0.01 µM): 0.976 GR
GR value (THZ531; 0.03162 µM): 0.879 GR
GR value (THZ531; 0.1 µM): -0.437 GR
GR value (THZ531; 0.3162 µM): -0.852 GR
GR value (THZ1; 0.0001 µM): 0.932 GR
GR value (THZ1; 0.0003162 µM): 1.51 GR
GR value (THZ1; 0.001 µM): 0.963 GR
GR value (THZ1; 0.003162 µM): 0.885 GR
GR value (THZ1; 0.01 µM): 0.645 GR
GR value (THZ1; 0.03162 µM): 0.0807 GR
GR value (THZ1; 0.1 µM): -0.731 GR
GR value (THZ1; 0.3162 µM): -0.852 GR
GR value (THZ1; 1 µM): -0.8 GR
GR value (Flavopiridol [7]; 0.0001 µM): 0.966 GR
GR value (Flavopiridol [7]; 0.0003162 µM): 0.963 GR
GR value (Flavopiridol [7]; 0.001 µM): 0.368 GR
GR value (Flavopiridol [7]; 0.003162 µM): 1 GR
GR value (Flavopiridol [7]; 0.01 µM): 0.995 GR
GR value (Flavopiridol [7]; 0.03162 µM): 0.961 GR
GR value (Flavopiridol [7]; 0.1 µM): 0.805 GR
GR value (Flavopiridol [7]; 0.3162 µM): -0.16 GR
GR value (Flavopiridol [7]; 1 µM): -0.885 GR

— the supplement of paper PMC9663587
